Some test systems named below: EKVX NSCLC; UACC-62 melanoma; SNB-19 CNS; HCT-116 colon; HT29 colon; OVCAR-4 ovarian; CAKI-1 renal; PC-3 prostate; TK-10 renal; 786-0 renal; KM12 colon.
What all share (assay): DTP human tumour cell line panel, 48 h

We go through three compounds from PubChem BioAssay (NCI).

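The compound was tested at five concentrations on cells cultured in 96-well plates, with a 48-hour exposure period. The concentration for full growth arrest is given as TGI.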

As a reminder, the TGI is the concentration at which net growth stops. High values mean lower sensitivity of the cells, low ones greater sensitivity of the cells. With `CCOC(=O)c1sc2c(c1OC(=O)c1cccs1)c(=O)n(-c1ccccc1)c(=S)n2-c1ccccc1`, the total growth inhibition concentration (TGI) in the assay with EKVX NSCLC amounted to 79.5 µM; in the assay on UACC-62 melanoma it was 33.4 µM; in the assay with SNB-19 CNS, 88.5 µM; with HCT-116 colon it was 22 µM; in the assay on HT29 colon it was 17.2 µM; with OVCAR-4 ovarian, 27.5 µM. For the same compound, the TGI with CAKI-1 renal is 75.8 µM; in the assay on PC-3 prostate it was 31.8 µM; with TK-10 renal, > 100 µM; with 786-0 renal it was 24.4 µM; in the assay on KM12 colon, 42.3 µM.
`CN(C(=O)Cc1cc(Cl)c(Cl)cc1N=C=S)[C@H]1CCCC[C@@H]1N1CCCC1`: the TGI in the assay with EKVX NSCLC is 31.7 µM; in the assay on UACC-62 melanoma, 30.3 µM; with SNB-19 CNS, 27.4 µM; in the assay with HCT-116 colon it was 21.7 µM; with HT29 colon, 18.7 µM; in the assay with OVCAR-4 ovarian it was 26.3 µM. Besides, the TGI in the assay with CAKI-1 renal amounted to 29.2 µM; with PC-3 prostate, 26.3 µM; in the assay with TK-10 renal, 23.5 µM; with 786-0 renal, 25.5 µM; in the assay on KM12 colon, 29.7 µM.
`Cc1n[nH]c(=O)c2cc(-c3ccccc3)[nH]c12`: the TGI with EKVX NSCLC, in the assay on UACC-62 melanoma, with SNB-19 CNS, with HCT-116 colon, in the assay on HT29 colon and in the assay on OVCAR-4 ovarian was > 100 µM each time. Besides, the TGI in the assay on CAKI-1 renal was > 100 µM; in the assay with PC-3 prostate, 96.6 µM; in the assay with TK-10 renal, > 100 µM; in the assay with 786-0 renal, > 100 µM; in the assay on KM12 colon, > 100 µM.
